Test results as given in PubChem BioAssay (NCI).
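Growth conditions: 96-well plates. Treatment: test compound, 48 hours, 5 concentrations. Analysis: linear interpolation between bracketing concentrations; unreached endpoints set to highest concentration. GI50: concentration for 50% inhibition of growth. The concentration for full growth arrest is given as TGI.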

Legend:
Assay in all cases: growth of human tumour cells (NCI), 48 h
[1] = test system: A549 NSCLC
[2] = test system: SK-OV-3 ovarian
[3] = test system: MDA-MB-435
[4] = test system: IGROV1 ovarian
[5] = test system: HL-60(TB) leukemia
[6] = test system: TK-10 renal
[7] = test system: CAKI-1 renal
[8] = test system: RXF 393 renal
[9] = test system: U251 CNS
[10] = test system: HT29 colon
[11] = test system: MOLT-4 leukemia
[12] = test system: SR leukemia
[13] = test system: NCI-H522 lung
[14] = test system: SK-MEL-28 melanoma
[15] = test system: CCRF-CEM leukemia
[16] = test system: SF-268 CNS
[17] = test system: MCF7 breast
[18] = test system: HCT-116 colon
[19] = test system: RPMI-8226 leukemia
[20] = test system: NCI-H226 lung
[21] = test system: M14 melanoma
[22] = test system: HS 578T breast
[23] = test system: SK-MEL-5 melanoma
[24] = test system: 786-0 renal
[25] = test system: MALME-3M melanoma
[26] = test system: HCT-15 colon
[27] = test system: SNB-19 CNS
[28] = test system: NCI-H460 lung
[29] = test system: ACHN renal
[30] = test system: SW-620 colon
[31] = test system: NCI-H23 lung
[32] = test system: OVCAR-4 ovarian
[33] = test system: SN12C renal
[34] = test system: OVCAR-8 ovarian
[35] = test system: PC-3 prostate
[36] = test system: T-47D breast
[37] = test system: SF-295 CNS
[38] = test system: DU-145 prostate
[39] = test system: NCI/ADR-RES ovarian
[40] = test system: OVCAR-3 ovarian
[41] = test system: COLO 205 colon
[42] = test system: SF-539 CNS
[43] = test system: BT-549 breast
[44] = test system: HCC-2998 colon
[45] = test system: SK-MEL-2 melanoma
[46] = test system: LOX IMVI melanoma
[47] = test system: UACC-62 melanoma
[48] = test system: SNB-75 CNS
[49] = test system: OVCAR-5 ovarian
[50] = test system: HOP-62 NSCLC
[51] = test system: UO-31 renal
[52] = test system: MDA-MB-231 breast
[53] = test system: K-562 leukemia
[54] = test system: KM12 colon
[55] = test system: HOP-92 NSCLC
[56] = test system: UACC-257 melanoma
[57] = test system: A498 renal
[58] = test system: EKVX NSCLC

O=C(Nc1cccc(-c2cccc(F)c2)c1)C1CCN(Cc2cccc3cccnc23)CC1
GI50 [1]: 3.47 µM
TGI [1]: 13 µM
GI50 [2]: 4.67 µM
TGI [2]: 16.9 µM
GI50 [3]: 1.69 µM
TGI [3]: 3.19 µM
GI50 [4]: 2.1 µM
TGI [4]: 4.74 µM
GI50 [5]: 1.94 µM
TGI [5]: 4.2 µM
GI50 [6]: 4.3 µM
TGI [6]: 16.7 µM
GI50 [7]: 1.96 µM
TGI [7]: 4.07 µM
GI50 [8]: 1.57 µM
TGI [8]: 3.47 µM
GI50 [9]: 1.85 µM
TGI [9]: 3.73 µM
GI50 [10]: 1.51 µM
TGI [10]: 3.17 µM
GI50 [11]: 1.66 µM
TGI [11]: 4.77 µM
GI50 [12]: 1.66 µM
TGI [12]: 4.46 µM
GI50 [13]: 2.16 µM
TGI [13]: 5.1 µM
GI50 [14]: 1.82 µM
TGI [14]: 3.57 µM
GI50 [15]: 2.67 µM
TGI [15]: 11.2 µM
GI50 [16]: 4.05 µM
TGI [16]: 16.1 µM
GI50 [17]: 1.8 µM
TGI [17]: 4.16 µM
GI50 [18]: 1.71 µM
TGI [18]: 3.08 µM
GI50 [19]: 1.95 µM
TGI [19]: 4.49 µM
GI50 [20]: 3.15 µM
TGI [20]: 17.2 µM
GI50 [21]: 1.75 µM
TGI [21]: 3.3 µM
GI50 [22]: 1.91 µM
TGI [22]: 4.55 µM
GI50 [23]: 1.64 µM
TGI [23]: 3.06 µM
GI50 [24]: 1.58 µM
TGI [24]: 3.02 µM
GI50 [25]: 1.65 µM
TGI [25]: 3.28 µM
GI50 [26]: 1.79 µM
TGI [26]: 5.16 µM
GI50 [27]: 2 µM
TGI [27]: 4.83 µM
GI50 [28]: 1.92 µM
TGI [28]: 3.77 µM
GI50 [29]: 2.28 µM
TGI [29]: 5.67 µM
GI50 [30]: 1.71 µM
TGI [30]: 3.57 µM
GI50 [31]: 3.16 µM
TGI [31]: 13 µM
GI50 [32]: 3.57 µM
TGI [32]: 14.1 µM
GI50 [33]: 1.97 µM
TGI [33]: 4.83 µM
GI50 [34]: 3.53 µM
TGI [34]: 13.8 µM
GI50 [35]: 2.21 µM
TGI [35]: 7.09 µM
GI50 [36]: 2 µM
TGI [36]: 5.83 µM
GI50 [37]: 1.8 µM
TGI [37]: 3.6 µM
GI50 [38]: 4.36 µM
TGI [38]: 15.6 µM
GI50 [39]: 2.76 µM
TGI [39]: 10.2 µM
GI50 [40]: 3.51 µM
TGI [40]: 13.2 µM
GI50 [41]: 1.62 µM
TGI [41]: 3.29 µM
GI50 [42]: 1.8 µM
TGI [42]: 3.56 µM
GI50 [43]: 1.79 µM
TGI [43]: 3.3 µM
GI50 [44]: 1.77 µM
TGI [44]: 3.29 µM
GI50 [45]: 2.03 µM
TGI [45]: 4.29 µM
GI50 [46]: 1.59 µM
TGI [46]: 3.12 µM
GI50 [47]: 1.73 µM
TGI [47]: 3.28 µM
GI50 [48]: 2.4 µM
TGI [48]: 11.7 µM
GI50 [49]: 2.93 µM
TGI [49]: 11.8 µM
GI50 [50]: 3.78 µM
TGI [50]: 15.7 µM
GI50 [51]: 1.73 µM
TGI [51]: 4.11 µM
GI50 [52]: 1.9 µM
TGI [52]: 3.99 µM
GI50 [53]: 1.52 µM
TGI [53]: 3.87 µM
GI50 [54]: 3.16 µM
TGI [54]: 10.3 µM
GI50 [55]: 2.03 µM
TGI [55]: 7.22 µM
GI50 [56]: 1.83 µM
TGI [56]: 3.75 µM
GI50 [57]: 2.06 µM
TGI [57]: 7.09 µM

C[N+](C)=C/C=C(\Cl)c1ccc2ccccc2c1
TGI [1]: > 100 µM
TGI [2]: 38.2 µM
TGI [3]: 36 µM
TGI [4]: 34.9 µM
TGI [5]: 38.5 µM
TGI [6]: 33.4 µM
TGI [7]: 25 µM
TGI [8]: 47.9 µM
TGI [9]: 27.8 µM
TGI [10]: 28.4 µM
TGI [11]: 3.67 µM
TGI [12]: 4.26 µM
TGI [58]: 60.1 µM
TGI [13]: 67.8 µM
TGI [14]: 11.1 µM
TGI [16]: 67 µM
TGI [17]: > 73.4 µM
TGI [18]: 9.79 µM
TGI [19]: 14.6 µM
TGI [20]: 41.4 µM
TGI [21]: 23.2 µM
TGI [22]: > 100 µM
TGI [23]: 36.5 µM
TGI [24]: 28.9 µM
TGI [25]: 27.8 µM
TGI [26]: 11.2 µM
TGI [27]: 38.5 µM
TGI [28]: 57.6 µM
TGI [29]: 28.5 µM
TGI [30]: 29.2 µM
TGI [31]: 17.1 µM
TGI [32]: 11.6 µM
TGI [33]: 50 µM
TGI [34]: 31.6 µM
TGI [35]: 43.5 µM
TGI [36]: 48.3 µM
TGI [37]: 33.8 µM
TGI [38]: 28.8 µM
TGI [39]: 17.3 µM
TGI [40]: 13.4 µM
TGI [41]: 41.4 µM
TGI [42]: 58.7 µM
TGI [43]: 38.6 µM
TGI [44]: 20.7 µM
TGI [45]: 59.9 µM
TGI [46]: 12.8 µM
TGI [47]: 29.9 µM
TGI [48]: > 58.2 µM
TGI [49]: 39.8 µM
TGI [50]: 35 µM
TGI [51]: 32.6 µM
TGI [52]: 28.8 µM
TGI [53]: > 33.2 µM
TGI [54]: 32.3 µM
TGI [55]: 53.3 µM
TGI [56]: 36.8 µM
TGI [57]: > 100 µM

Cc1ccc(-c2cc(C(=O)N3N=C(c4ccc(N)cc4)CC3c3ccc(Cl)cc3)c3ccccc3n2)cc1 (stereo not drawn)
GI50 [1]: 4.79 µM
TGI [1]: > 100 µM
GI50 [2]: 4.94 µM
TGI [2]: > 100 µM
GI50 [3]: 1 µM
TGI [3]: 3.66 µM
GI50 [4]: 6.48 µM
TGI [4]: > 100 µM
GI50 [5]: 3.49 µM
TGI [5]: > 100 µM
GI50 [6]: 8.51 µM
TGI [6]: > 100 µM
GI50 [8]: 1.63 µM
TGI [8]: 7.06 µM
GI50 [9]: 4.51 µM
TGI [9]: > 100 µM
GI50 [10]: 3.35 µM
TGI [10]: > 100 µM
GI50 [11]: 3.23 µM
TGI [11]: > 100 µM
GI50 [12]: 3.29 µM
TGI [12]: > 100 µM
GI50 [58]: 3.99 µM
TGI [58]: > 100 µM
GI50 [13]: 0.622 µM
TGI [13]: 4.21 µM
GI50 [14]: 6.23 µM
TGI [14]: > 100 µM
GI50 [15]: 4.53 µM
TGI [15]: > 100 µM
GI50 [16]: 4.09 µM
TGI [16]: > 100 µM
GI50 [17]: 2.53 µM
TGI [17]: > 100 µM
GI50 [18]: 3.18 µM
TGI [18]: > 100 µM
GI50 [19]: 4.1 µM
TGI [19]: > 100 µM
GI50 [20]: 6.47 µM
TGI [20]: > 100 µM
GI50 [22]: 4.68 µM
TGI [22]: > 100 µM
GI50 [23]: 2.5 µM
TGI [23]: > 100 µM
GI50 [24]: 4.22 µM
TGI [24]: > 100 µM
GI50 [25]: > 100 µM
TGI [25]: > 100 µM
GI50 [26]: 3.33 µM
TGI [26]: > 100 µM
GI50 [27]: 6.51 µM
TGI [27]: > 100 µM
GI50 [28]: 3.51 µM
TGI [28]: > 100 µM
GI50 [29]: 4.19 µM
TGI [29]: > 100 µM
GI50 [30]: 4.24 µM
TGI [30]: > 100 µM
GI50 [31]: 5.02 µM
TGI [31]: > 100 µM
GI50 [32]: 4.71 µM
TGI [32]: > 100 µM
GI50 [33]: 6.84 µM
TGI [33]: > 100 µM
GI50 [34]: 5.25 µM
TGI [34]: > 100 µM
GI50 [35]: 3.4 µM
TGI [35]: > 100 µM
GI50 [36]: 2.73 µM
TGI [36]: > 100 µM
GI50 [37]: 3.13 µM
TGI [37]: > 100 µM
GI50 [38]: 3.68 µM
TGI [38]: > 100 µM
GI50 [39]: 2.54 µM
TGI [39]: > 100 µM
GI50 [40]: 2.98 µM
TGI [40]: 36.6 µM
GI50 [41]: 2.8 µM
TGI [41]: 9.48 µM
GI50 [42]: 2.43 µM
TGI [42]: 8.1 µM
GI50 [43]: 3.92 µM
TGI [43]: > 100 µM
GI50 [44]: 4.28 µM
TGI [44]: > 100 µM
GI50 [45]: 3.81 µM
TGI [45]: > 100 µM
GI50 [46]: 4 µM
TGI [46]: > 100 µM
GI50 [47]: 2.06 µM
TGI [47]: > 100 µM
GI50 [48]: 1.41 µM
TGI [48]: 6.68 µM
GI50 [49]: 8.43 µM
TGI [49]: > 100 µM
GI50 [50]: 4.62 µM
TGI [50]: > 100 µM
GI50 [51]: 2.2 µM
TGI [51]: > 100 µM
GI50 [52]: 3.94 µM
TGI [52]: 92.2 µM
GI50 [53]: 3.09 µM
TGI [53]: > 100 µM
GI50 [54]: 3.46 µM
TGI [54]: > 100 µM
GI50 [55]: 4.1 µM
TGI [55]: 92.3 µM
GI50 [56]: 33.7 µM
TGI [56]: > 100 µM
GI50 [57]: 1.64 µM
TGI [57]: 6.5 µM
